# From patent publication US20220348981A1, “ASSAY OF ARYLSULFATASE A ENZYMATIC ACTIVITY IN DRIED BLOOD SPOTS BY MASS SPECTROMETRY AND FLUOROMETRY” (University of Washington, priority 2019, published 2022)
# Legend:
# [1] = target: T1, arylsulfatase A (ARSA) (Homo sapiens, UniProt P15289); experiment: ARSA leukocyte assay by LC-MS/MS with deuterated sulfatide substrate; type: biochemical; settings: for effect on ARSA activity: additive in assay buffer, increasing amount (Ce(acetate)3 0 to 20 mM)
# T1 construct: the assay is able to detect ARSA enzymatic activity in lysates of mixed leukocytes (mainly lymphocytes) by LC-MS/MS; endogenous in cells; host or cells: mixed leukocytes (mainly lymphocytes) prepared from K2EDTA venous blood; lysate, 2 µg protein per assay
# T1 sequence (P15289 19-507): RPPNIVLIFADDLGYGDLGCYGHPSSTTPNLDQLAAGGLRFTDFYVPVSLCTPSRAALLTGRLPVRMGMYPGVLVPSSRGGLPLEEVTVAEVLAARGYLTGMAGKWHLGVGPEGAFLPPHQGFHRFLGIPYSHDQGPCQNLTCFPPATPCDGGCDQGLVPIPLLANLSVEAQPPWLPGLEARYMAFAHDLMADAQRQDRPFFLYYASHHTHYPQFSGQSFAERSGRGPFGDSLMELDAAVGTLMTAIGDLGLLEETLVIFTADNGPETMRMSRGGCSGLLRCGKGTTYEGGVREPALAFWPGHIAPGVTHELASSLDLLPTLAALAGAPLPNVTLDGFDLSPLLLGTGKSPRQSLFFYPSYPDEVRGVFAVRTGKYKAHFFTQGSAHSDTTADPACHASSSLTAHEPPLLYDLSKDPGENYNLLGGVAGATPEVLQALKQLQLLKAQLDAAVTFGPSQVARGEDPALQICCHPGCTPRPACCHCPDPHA
# Experimental: Development of a new ARSA leukocyte assay. Recently, Han et al. reported the detection of ARSA enzymatic activity where a natural substrate, C18:0-sulfatide, was incubated with leukocyte lysate in buffer containing sodium taurodeoxycholate as detergent (Han, M.; Jun, S. H.; Song, S. H.; Park, H. D.; Park, K. U.; Song, J., Ultra-performance liquid chromatography-tandem mass spectrometry measurement of leukocyte arylsulfatase A activity using a natural substrate. Ann Lab Med 2015, 35 (1), 165-8). As described herein, in the present assay, the deuterium labeled sulfatide d3-C18:0-sulfatide was used as substrate so that the enzymatic product (d3-C18:0-galactosyl-ceramide) also carried the three deuterium labels, and could be selectively quantified without being interfered by the endogenous galactosyl-ceramide. Using this approach, the assay is able to detect ARSA enzymatic activity in lysates of mixed leukocytes (mainly lymphocytes) by LC-MS/MS. […] If leukocyte lysate was omitted, no discernable product peak was observed above the baseline noise (data not shown). […] Because detergent was present in the assay buffer, MLD patients that are due to dysfunctional Saposin B protein will not be detected with this assay, but these variants are very rare among MLD patients (less than 5%). In the Han et al. report, MnCl2 was added to the buffer at a concentration of 33 mM. […] Barium or cerium […] are often used to assay sulfatases in complex matrices to sequester inorganic sulfate and phosphate ions, which are potent inhibitors of sulfatases. […] The ARSA activity was pH dependent with an optimal pH at 4.5. […] The pH optimum of ARSA and the KM value found agreed with the previous reports. […]
# Enzymatic activity calculation. ARSA activity in leukocyte (nmol/h/mg protein) was calculated by multiplying the ion ratio of ARSA product to ARSA internal standard (blank subtracted) by the nanomoles of internal standard added to the assay, then dividing by the incubation time (h) and the amount of leukocyte protein used (mg). […]
# [2] = target: T1, arylsulfatase A (ARSA); experiment: ARSA assay with a 3 mm DBS punch, no purification; type: biochemical; settings: 5 mM added to the assay buffer; data not shown
# Experimental: Application of ARSA assay to DBS extracts purified by immune-precipitation. Initial attempts to detect ARSA enzymatic activity in DBS were unsuccessful. When the leukocyte lysate was substituted with a 3 mm DBS punch in the ARSA assay, no ARSA activity could be detected. Moreover, no ARSA activity was observed when leukocyte lysate was co-incubated with a DBS punch, whereas activity was seen when the leukocyte was incubated with a filter paper punch lacking blood matrix (data not shown). This indicated the presence of some ARSA inhibitor(s) in whole blood.
effect on ARSA activity [1],rescue of ARSA activity in DBS [2],"Km ([1]; leukocyte lysate, substrate concentration varied, hyperbolic kinetics, pH 4.5) [µM]",Compound
decrease,did not rescue ARSA activity,–,CC(=O)[O-].CC(=O)[O-].CC(=O)[O-].[Ce+3] [Ce(acetate)3]
decrease with increasing amount,–,–,[Cl][Mn][Cl] [MnCl2]
–,did not rescue ARSA activity,–,CC(=O)[O-].CC(=O)[O-].[Pd+2] [Pd(Acetate)2]
–,–,83,d3-C18:0-sulfatide
